Experimental data reported in patent publication US20250215039A1, “NUCLEOSIDES FOR TREATING CANCER” (PRIMEFOUR THERAPEUTICS, INC., priority 2022, published 2025).
Like-named read-outs stand apart in the source and are kept apart here.

Tested on: cancer cell lines
Assay: Cancer cell proliferation activity (CellTiterGlo, 72 h)
Assay type: cell-based
Details: 72 h, 72 h, read-out: IC50 cell proliferation
Summary of the method: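 Readout is CellTiterGlo luminescence after 72 h compound exposure (0.1% DMSO final), started one day post-seeding, at 37 °C.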

IC50 (5637 (bladder)): > 50 µM
IC50 (CLS439 (bladder)): > 50 µM
IC50 (HS729 (muscle)): 5.86 µM
IC50 (J82 (bladder)): 5.54 µM
IC50 (JAR (placenta)): > 50 µM
IC50 (MT3 (breast)): 0.58 µM
IC50 (PANCI (pancreas)): 3.6 µM
IC50 (PC3 (prostate)): 2.04 µM
IC50 (RD (muscle)): > 50 µM
IC50 (T24 (bladder)): 2.32 µM
IC50 (Homo sapiens, 22Rv1, 72 h, 22RV1 (prostate)): 5.77 µM
IC50 (Homo sapiens, 786-0, 72 h, 786O (kidney)): 9.53 µM
IC50 (Homo sapiens, A204, 72 h, A204 (muscle)): 0.06 µM
IC50 (Homo sapiens, A549, 72 h, A549 (lung)): 2.32 µM
IC50 (Homo sapiens, A673, 72 h, A673 (bone)): 3.26 µM
IC50 (Homo sapiens, A2780, 72 h, A2780 (ovary)): 3.47 µM
IC50 (Homo sapiens, A-375, 72 h, A375 (skin)): 3.61 µM
IC50 (Homo sapiens, A-431, 72 h, A431 (skin)): 2.52 µM
IC50 (Homo sapiens, ACHN, ACHN (kidney)): 2.82 µM
IC50 (Homo sapiens, ASPC1, 72 h, ASPC1 (pancreas)): > 50 µM
IC50 (Homo sapiens, BT-20, 72 h, BT20 (breast)): 3.06 µM
IC50 (Homo sapiens, BXPC-3, 72 h, BXPC3 (pancreas)): 4.27 µM
IC50 (Homo sapiens, C-33-A, C33A (endometrial)): 1.46 µM
IC50 (Homo sapiens, CAKI-1, 72 h, CAKI1 (kidney)): 1.58 µM
IC50 (Homo sapiens, COLO 205, 72 h, COLO205 (colon)): 1.57 µM
IC50 (Homo sapiens, COLO-678, 72 h, COLO678 (colon)): > 50 µM
IC50 (Homo sapiens, Ca-Ski, CASKI (endometrial)): 3.06 µM
IC50 (Homo sapiens, Caco-2, 72 h, CACO2 (colon)): > 50 µM
IC50 (Homo sapiens, Calu-6, 72 h, CALU6 (lung)): 3.82 µM
IC50 (Homo sapiens, DLD-1, 72 h, DLD1 (colon)): 4.02 µM
IC50 (Homo sapiens, DU-145, 72 h, DU145 (prostate)): 1.4 µM
IC50 (Homo sapiens, EFO-21, 72 h, EFO21 (ovary)): 4.59 µM
IC50 (Homo sapiens, EJ-28, 72 h, EJ28 (bladder)): 4.43 µM
IC50 (Homo sapiens, Granta-519, 72 h, GRANTA-519 (hematological)): 0.89 µM
IC50 (Homo sapiens, HCT-15, 72 h, HCT15 (colon)): 2.14 µM
IC50 (Homo sapiens, HCT-116, 72 h, HCT116 (colon)): 2.79 µM
IC50 (Homo sapiens, HEK293, 72 h, HEK293 (kidney)): > 50 µM
IC50 (Homo sapiens, HL-60, 72 h, HL-60 (hematological)): 1.63 µM
IC50 (Homo sapiens, HT-29, 72 h, HT29 (colon)): > 50 µM
IC50 (Homo sapiens, HT-1080, 72 h, HT1080 (connective tissue)): 2.78 µM
IC50 (Homo sapiens, HeLa, HELA (endometrial)): > 50 µM
IC50 (Homo sapiens, HepG2, 72 h, HEPG2 (liver)): 3.57 µM
IC50 (Homo sapiens, Hs-578T, HS578T (breast)): > 50 µM
IC50 (Homo sapiens, IGROV-1, 72 h, IGROV1 (ovary)): 2.14 µM
IC50 (Homo sapiens, IMR-90, 72 h, IMR90 (lung)): 4.16 µM
IC50 (Homo sapiens, JEG-3, 72 h, JEG3 (placenta)): > 50 µM
IC50 (Homo sapiens, JIMT-1, 72 h, JIMT1 (breast)): 2.82 µM
IC50 (Homo sapiens, K562, 72 h, K-562 (hematological)): > 50 µM
IC50 (Homo sapiens, Kasumi 1, 72 h, KASUMI-1 (hematological)): 0.37 µM
IC50 (Homo sapiens, L-363, 72 h, L-363 (hematological)): > 50 µM
IC50 (Homo sapiens, LoVo, LOVO (colon)): 2.33 µM
IC50 (Homo sapiens, MCF7, 72 h, MCF7 (breast)): > 50 µM
IC50 (Homo sapiens, MDA-MB-231, 72 h, MDAMB231 (breast)): 1.45 µM
IC50 (Homo sapiens, MDA-MB-435, 72 h, MDAMB435 (skin)): 4.74 µM
IC50 (Homo sapiens, MDA-MB-436, 72 h, MDAMB436 (breast)): > 50 µM
IC50 (Homo sapiens, MDA-MB-468, 72 h, MDAMB468 (breast)): > 50 µM
IC50 (Homo sapiens, MG-63, 72 h, MG63 (bone)): > 50 µM
IC50 (Homo sapiens, MHH-ES-1, 72 h, MHHES1 (bone)): 2.26 µM
IC50 (Homo sapiens, MIA PaCa-2, 72 h, MIAPACA2 (pancreas)): > 50 µM
IC50 (Homo sapiens, MINO, MINO (hematological)): 0.25 µM
IC50 (Homo sapiens, MV4-11, 72 h, MV4-11 (hematological)): 4.77 µM
IC50 (Homo sapiens, NCI-H23, 72 h, NCI-H23 (lung)): 7.88 µM
IC50 (Homo sapiens, NCI-H82, 72 h, NCIH82 (lung)): 3.37 µM
IC50 (Homo sapiens, NCI-H292, 72 h, NCIH292 (lung)): 5.76 µM
IC50 (Homo sapiens, NCI-H460, 72 h, NCIH460 (lung)): 2.83 µM
IC50 (Homo sapiens, OVCAR-3, 72 h, OVCAR3 (ovary)): 2.75 µM
IC50 (Homo sapiens, OVCAR-4, 72 h, OVCAR4 (ovary)): > 50 µM
IC50 (Homo sapiens, PLC-PRF-5, 72 h, PLCPRF5 (liver)): > 50 µM
IC50 (Homo sapiens, Panc1005, 72 h, PANC1005 (pancreas)): > 50 µM
IC50 (Homo sapiens, Ramos, RAMOS (hematological)): 3.01 µM
IC50 (Homo sapiens, SAOS-2, 72 h, SAOS2 (bone)): 1.12 µM
IC50 (Homo sapiens, SF-268, 72 h, SF268 (brain)): 2.77 µM
IC50 (Homo sapiens, SF-295, 72 h, SF295 (brain)): > 50 µM
IC50 (Homo sapiens, SK-BR-3, 72 h, SKBR3 (breast)): 3.5 µM
IC50 (Homo sapiens, SK-HEP1, 72 h, SKHEP1 (liver)): 2.9 µM
IC50 (Homo sapiens, SK-LMS-1, 72 h, SKLMS1 (uterus)): > 50 µM
IC50 (Homo sapiens, SK-MEL-5, 72 h, SKMEL5 (skin; SKMELS [sic] in Table 9E)): > 50 µM
IC50 (Homo sapiens, SK-MEL-28, 72 h, SKMEL28 (skin)): > 50 µM
IC50 (Homo sapiens, SK-N-AS, SKNAS (brain)): 6.05 µM
IC50 (Homo sapiens, SK-N-SH, SKNSH (brain)): 4.78 µM
IC50 (Homo sapiens, SK-OV-3, 72 h, SKOV3 (ovary)): > 50 µM
IC50 (Homo sapiens, SNB-75, 72 h, SNB75 (brain)): 4.46 µM
IC50 (Homo sapiens, SU-DHL10, 72 h, SU-DHL-10 (hematological)): 3.24 µM
IC50 (Homo sapiens, SU-DHL-6, 72 h, SU-DHL-6 (hematological)): 2.94 µM
IC50 (Homo sapiens, SW-620, 72 h, SW620 (colon)): > 50 µM
IC50 (Homo sapiens, TE-671, 72 h, TE671 (muscle)): 4.85 µM
IC50 (Homo sapiens, THP-1, 72 h, THP-1 (hematological)): 2.96 µM
IC50 (Homo sapiens, U2OS, U20S (bone; U2OS in Table 9E)): > 50 µM
IC50 (Homo sapiens, U-87 MG, U87MG (brain)): 1.06 µM
IC50 (Homo sapiens, UMUC3, 72 h, UMUC3 (bladder)): 4.2 µM
IC50 (Homo sapiens, UO-31, 72 h, UO31 (kidney)): 3.89 µM
IC50 (Homo sapiens, WSU-NHL, WSU-NHL (hematological)): 0.49 µM
IC50 (NCI-H358M, NCIH358M (lung)): 2.52 µM
IC50 (PBMC, PBMC (hematological)): > 50 µM
IC50 (RD-ES, RDES (bone)): > 50 µM
SMILES: C[C@]1(CO)O[C@@H](n2ccc(N)nc2=O)[C@@H](O)[C@@H]1O [Cpd. No. 193, 4-amino-1-((2R,3S,4S,5R)-3,4-dihydroxy-5-(hydroxymethyl)-5-methyltetrahydrofuran-2-yl)pyrimidin-2(1H)-one]
